Converted amounts (≈) assume the structure as drawn.
Assays:
[1] = molecular target: T1, pig kidney microsomal leucyl aminopeptidase, Type IV-S (Sus scrofa, UniProt P15145); assay: Leucyl aminopeptidase inhibition (L-leucine p-nitroanilide substrate, absorbance 405 nm); assay type: biochemical; details: pre-incubation 30 minutes at 37 °C, pH 8.5; IC50 by linear regression
T1 construct: pig kidney microsomal leucyl aminopeptidase, Type IV-S (Sigma-Aldrich) 3.5 mg of protein/ml; purchased Sigma-Aldrich; host or cells: pig kidney (microsomal fraction)
T1 sequence (P15145 1-963): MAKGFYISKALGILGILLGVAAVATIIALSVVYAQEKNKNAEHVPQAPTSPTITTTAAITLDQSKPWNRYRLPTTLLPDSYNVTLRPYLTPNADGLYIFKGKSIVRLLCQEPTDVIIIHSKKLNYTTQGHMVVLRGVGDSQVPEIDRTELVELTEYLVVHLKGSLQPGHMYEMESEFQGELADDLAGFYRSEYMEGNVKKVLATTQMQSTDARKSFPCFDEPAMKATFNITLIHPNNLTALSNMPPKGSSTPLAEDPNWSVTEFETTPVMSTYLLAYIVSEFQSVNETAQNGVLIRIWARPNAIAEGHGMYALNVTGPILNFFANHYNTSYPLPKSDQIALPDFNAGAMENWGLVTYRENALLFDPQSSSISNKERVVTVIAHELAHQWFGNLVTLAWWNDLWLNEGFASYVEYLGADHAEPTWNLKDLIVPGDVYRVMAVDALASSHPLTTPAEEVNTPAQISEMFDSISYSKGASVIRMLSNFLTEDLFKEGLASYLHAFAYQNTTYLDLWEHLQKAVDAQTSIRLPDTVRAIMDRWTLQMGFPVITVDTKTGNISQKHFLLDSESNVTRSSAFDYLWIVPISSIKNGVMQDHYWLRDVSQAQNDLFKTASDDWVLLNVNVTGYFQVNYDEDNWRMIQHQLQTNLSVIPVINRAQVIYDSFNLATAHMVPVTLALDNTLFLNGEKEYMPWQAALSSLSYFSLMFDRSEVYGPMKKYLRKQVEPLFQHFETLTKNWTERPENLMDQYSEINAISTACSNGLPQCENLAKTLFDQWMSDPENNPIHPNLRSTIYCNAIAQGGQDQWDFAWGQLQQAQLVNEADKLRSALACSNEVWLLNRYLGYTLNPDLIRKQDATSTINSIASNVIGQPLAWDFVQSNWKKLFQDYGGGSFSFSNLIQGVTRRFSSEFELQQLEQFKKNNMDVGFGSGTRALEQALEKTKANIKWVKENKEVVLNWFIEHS
Method: Leucyl aminopeptidase inhibition according to Cahan R., Hetzroni E., Nisnevitch M., Nitzan Y.: Purification and Identification of a Novel Leucine Aminopeptidase from Bacillus Thuringiensis israelensis. Curr. Microbial (2007) 55: 413-419.
• 1. Enzyme: pig kidney microsomal leucyl aminopeptidase, Type IV-S (Sigma-Aldrich) 3.5 mg of protein/ml, 28 U/mg of protein; diluted with 0.02M Tris-HCl + 0.5 mM CaCl2 buffer pH=8.5 until activity 0.01225U achieved • 2. Substrate: L-leucine p-nitroanilide: 4.2 mg / 269 µl DMSO; solution diluted 1:19 with 0.02 M Tris-HCl buffer, pH = 8.5 + 0.5 mM CaCl2 • 3. 0.02 M Tris-HCl buffer, pH = 8.5 + 0.5 mM CaCl2 • 4. DMSO, inhibitor solution in DMSO
5 µl of leucyl aminopeptidase ([…]), 70 µl of Tris, 5 µl of inhibitor solution in different concentrations (in DMSO) were added to the wells of a microtitration plate, followed by pre-incubation for 30 minutes at 37 °C. Next, 20µl of diluted L-leucine p-nitroanilide solution was added, whereupon the reaction mixture was incubated for 20 minutes at 37 °C, with measurement of absorbance changes for wavelength 405 nm (Fluorostar, Omega, BMG Labtech). The control sample for the enzyme contained analogous components, while instead of the inhibitor solution DMSO (5 µl) was added.
For each inhibitor concentration the percentage inhibition was calculated. The inhibitor concentration required for 50% of enzyme activity inhibition (IC50) was calculated based on linear regression data between the percentage inhibition and the concentration for a given inhibitor.

[2] = tested on: MCF-10 (normal mammary gland cells); assay: Cytotoxic activity against normal cells, SRB test; assay type: cell-based; details: Homo sapiens, MCF10, MCF-10, 72-hour culture, read-out: IC50
Method: (§1) 4.3. Cytotoxic activity evaluation against normal cell lines with diverse tissue origins using the SRB test:
(§2) • a) normal mouse fibroblasts (BALB/3T3), • b) normal mammary gland cells (MCF-10), • c) normal human epithelium (HLMEC)
(§3) The stock solution of the tested compound with concentration of 20 mg/ml was prepared day before the analysis by dissolving the preparation in DMSO, followed by storage in -20°C. After 24 hours the preparation was thawed and diluted with the culture medium. The compounds were tested in concentrations of 100, 10, 1, 0.1 0.01 µg/ml.
(§4) The following human cancer cell lines were used in the study: HL-60 (promyelocytic leukemia), HL-60/MX2 (promyelocytic leukemia, line resistant to mitoxantrone), MCF7 (mammary gland cancer), LoVo (colorectal cancer), LoVo/Dx (colorectal cancer with multidrug resistance), HCV29T (bladder cancer), A498 (kidney cancer), A549 (lung cancer) and LNCaP (prostate cancer), as well as normal cell lines: BALB3T3 (normal mouse fibroblasts), MCF-10 (normal mammary gland cells) and HLMEC (normal human endothelium).
(§5) The cells in the phase of logarithmic growth were seeded on a 96-well plate (Sarsted) in quantity of 1 x 10^4 cells/well, and then incubated at 37°C, 5% CO2 for 24 hours. Subsequently, the tested compound was added in different concentrations and the incubation was carried out. […] For each assay the samples containing predetermined preparation concentrations were applied in triplicates. The experiments were repeated 3-5 times.
(§6) Sulphorhodamine B (SRB) is an anionic dye which binds to […] amino acids of cellular proteins. The determination of cytotoxic activity in the assay is based on the measurement of the amount of cellular proteins.
(§7) After the incubation is finished the attached cells are fixed with cold 50% TCA (4°C) at 4°C for 1 hour. Next, each well is washed with water and air dried, repeating this step 5 times.
(§8) 0.4% SRB solution (Sigma-Aldrich) dissolved in 1% acetic acid is added consecutively to each well and the staining is carried out for 30 minutes. The unbound dye is removed and the cells are washed 4 times with 1% acetic acid. Next, the plate is air dried for about 5 minutes.
(§9) The bound dye is dissolved by adding 10 mM Tris-base to each well and then OD is determined for wavelength 540 nm (Multiscan RC photometer, Labsystes, Helsinki).

[3] = tested on: Balb/3T3 (normal mouse fibroblasts); assay: Cytotoxic activity against normal cells, SRB test; assay type: cell-based; details: Mus musculus, Balb/3T3, 72-hour culture, read-out: IC50
Method: as §1, §2, §3, §4, §5, §6, §7, §8, §9

[4] = tested on: HLMEC (normal human epithelium); assay: Cytotoxic activity against normal cells, SRB test; assay type: cell-based; details: Homo sapiens, 72-hour culture, read-out: IC50
Method: as §1, §2, §3, §4, §5, §6, §7, §8, §9

A549 (lung cancer) = assay: Anti-proliferative activity, SRB test; assay type: cell-based, human; details: Homo sapiens, A549, 72-hour culture, read-out: IC50
Description: (§10) 4.1. Anti-proliferative activity evaluation using the SRB test [Skehan et al., J. Natl. Cancer Inst., 82: 1107-1112, 1990] against human cancer cell lines with diverse tissue origins and determination of the IC50 concentration: • a) colorectal cancer LoVo, • b) colorectal cancer LoVo/DX (with multidrug resistance), • c) breast cancer MCF-7, • d) prostate cancer LNCaP, • e) bladder cancer HCV29T, • f) kidney cancer A498, • g) lung cancer A549
as §3, §4, §5, §6, §7, §8, §9

HCV29T (bladder cancer) = assay: Anti-proliferative activity, SRB test; assay type: cell-based, human; details: Homo sapiens, 72-hour culture, read-out: IC50
Description: as §10, §3, §4, §5, §6, §7, §8, §9

A498 (kidney cancer) = assay: Anti-proliferative activity, SRB test; assay type: cell-based, human; details: Homo sapiens, A498, 72-hour culture, read-out: IC50
Description: as §10, §3, §4, §5, §6, §7, §8, §9

[5] = tested on: Lovo/Dx (colorectal cancer with multidrug resistance); assay: Anti-proliferative activity, SRB test; assay type: cell-based, human; details: Homo sapiens, 72-hour culture, read-out: IC50
Description: as §10, §3, §4, §5, §6, §7, §8, §9

MCF-7 (breast cancer) = assay: Anti-proliferative activity, SRB test; assay type: cell-based, human; details: Homo sapiens, MCF7, MCF-7, 72-hour culture, read-out: IC50
Description: as §10, §3, §4, §5, §6, §7, §8, §9

LNCaP (prostate cancer) = assay: Anti-proliferative activity, SRB test; assay type: cell-based, human; details: Homo sapiens, 72-hour culture, read-out: IC50
Description: as §10, §3, §4, §5, §6, §7, §8, §9

Lovo (colorectal cancer) = assay: Anti-proliferative activity, SRB test; assay type: cell-based, human; details: Homo sapiens, 72-hour culture, read-out: IC50
Description: as §10, §3, §4, §5, §6, §7, §8, §9

[6] = tested on: HL-60 (promyelocytic leukemia); assay: Anti-proliferative activity, MTT test; assay type: cell-based, human; details: Homo sapiens, HL-60, 72-hour culture, read-out: IC50
Method: (§11) 4.2. Anti-proliferative activity evaluation using the MTT test [Marcinkowska et al.: J. Steroid Biochem. Mol. 76: 71-78, 1998] against human cancer cell lines with diverse tissue origins and determination of the IC50 concentration: • a) promyelocytic leukemia HL-60, • b) promyelocytic leukemia HL-60/MX2 (with multidrug resistance)
as §3, §4, §5
(§12) The method involves a measurement of cell number increase inhibition utilizing the redox activity of mitochondria. The determination of biological activity with the MTT (3-(4,5-dimethylthiazol-2-yl)-2,5-diphenyltetrazolium bromide) assay is based on the assumption that reduction of the dye occurs only in viable cells. As a result of mitochondrial dehydrogenase activity the water-soluble tetrazolium salt (thiazolyl blue […] - MTT) is converted to water-insoluble formazan crystals. The quantity of the formed formazan crystals is proportional to the number of cells.
(§13) 3-4 hours before the end of cell incubation 20 µl of MTT solution (5 mg/ml) was added to each well. Next, 80 µl of dissolving mixture (with the following composition: 225 ml DMF (POCh), 67.5 g SDS (Sigma-Aldrich), 275 ml distilled H2O) was added. After 24 hours, formazan crystals were dissolved and OD of the samples was measured for wavelength 570 nm (Multiskan PC photometer, Labsystem, Helsinki).

[7] = tested on: HL-60 MX2 (promyelocytic leukemia with multidrug resistance); assay: Anti-proliferative activity, MTT test; assay type: cell-based, human; details: Homo sapiens, HL60/MX2, HL-60 MX2, 72-hour culture, read-out: IC50
Method: as §11, §3, §4, §5, §12, §13

Row | Structure (SMILES) | IC50 [1] [µM] | IC50 [2] [µg/mL] | IC50 [3] [µg/mL] | IC50 [4] [µg/mL] | IC50 (A549 (lung cancer)) [µg/mL] | IC50 (HCV29T (bladder cancer)) [µg/mL] | IC50 (A498 (kidney cancer)) [µg/mL] | IC50 [5] [µg/mL] | IC50 (MCF-7 (breast cancer)) [µg/mL] | IC50 (LNCaP (prostate cancer)) [µg/mL] | IC50 (Lovo (colorectal cancer)) [µg/mL] | IC50 [6] [µg/mL] | IC50 [7] [µg/mL]
1 | CCOC(=O)C1(C(=O)OCC)Cc2cc(O)cc(O)c2C=N1 [Compound 4, 6,8-dihydroxy-3,4-dihydroisoquinoline-3,3-dicarboxylic acid diethyl ester] | 1350 |  |  |  |  |  |  |  |  |  |  |  | 
2 | CCOC(=O)C1(C(=O)OCC)Cc2cc(OCc3ccccc3)cc(OCc3ccccc3)c2C=N1 [Compound 3, 6,8-dibenzyloxy-3,4-dihydroisoquinoline-3,3-dicarboxylic acid diethyl ester] | 28 | 15.3 (≈ 31.4 µM) | 17.4 ± 7.9 (≈ 35.6 µM) | 3.3 ± 0.3 (≈ 6.77 µM) | 6.4 ± 2.3 (≈ 13.1 µM) | 4.3 ± 0.7 (≈ 8.82 µM) | 6.5 ± 1.5 (≈ 13.3 µM) | 2 ± 0.8 (≈ 4.1 µM) | 4.7 ± 0.8 (≈ 9.64 µM) | 1.6 ± 0.3 (≈ 3.28 µM) | 3.1 ± 0.3 (≈ 6.36 µM) | 0.12 (≈ 0.246 µM) | 1.3 (≈ 2.67 µM)
